Measurements from patent US20240092770A1, “Heterocycle RMB39 Modulators” (Recursion Pharmaceuticals, Inc., priority 2022, published 2024).

Molecular target: RBM39 and the DCAF15 complex (RBM39-Flag / His-DCAF15-DDA1-DDB1) (Homo sapiens (Human), UniProt Q14498+Q66K64)
Test: DCAF15 RBM39 complex formation TR-FRET assay
Format: binding
Conditions: RBM39(R150-D331) 3xFlag 50 nM, His-DCAF15-DDA1-DDB1 10 nM, 60 min room temperature
Description: A TR-FRET assay was used to assess the effect of compounds disclosed herein on the interaction between RBM39 and the DCAF15 complex. Test compounds were dissolved to form a 10 mM DMSO stock solution. A 45 μL aliquot of the stock solution was transferred to a 384 pp-plate, and a threefold, 8-point dilution was performed via transferring 15 μL compound solution into 30 μL of DMSO. The plates were then spun at room temperature at 1,000 RPM for 1 minute.
A 30 nL aliquot of the diluted compound was transferred to a 384 well plate, which was incubated at room temperature for 15 minutes. Next, Solutions 1, 2, and 3 were prepared as described in the below tables. A 5 μL aliquot of Solution 2 was added to each well, followed by 5 μL of Solution 3 to start the reaction. The final volume of each well was 10 μL. The plates were incubated at room temperature for 60 minutes, and then read.
Next, an RBM39 (R150-D331) 3× Flag used in TR-FRET assay was prepared:
Recombinant RBM39 protein is composed of the R1R2 of RBM39 (aa 150 to 331; UniProt: Q14498). The coding sequence was sub-cloned into pGEX4T-1-RBM39-flag vector, expressed as a GST-fusion protein with N-terminal TEV protease cleavage site. A 3× Flag tag was added to the C-terminal of R1R2 used in a FRET assay.

Compound Cc1ccc(NS(=O)(=O)c2nc(C(=O)O)cs2)c2[nH]cc(C#N)c12 [Compound 57] has an EC50 greater than 30000 nM.
For O=S(=O)(Nc1cccc2c(Cl)c[nH]c12)c1nc(C(F)(F)F)cs1 [Compound 151], the EC50 was 344 nM.
In the case of Cc1nc(Br)sc1S(=O)(=O)Nc1cccc2c(C#N)c[nH]c12 [Compound 109], the EC50 is reported as 2070 nM.
Work on Cc1ncc(S(=O)(=O)Nc2cccc3c(C#N)c[nH]c23)s1 [Compound 51] yielded an EC50 of 164 nM.
In the case of Cc1ccc(NS(=O)(=O)c2ncc(-c3ccccn3)s2)c2[nH]cc(C#N)c12 [Compound 37], the EC50 is reported as 427 nM.
Cc1ccc(NS(=O)(=O)c2ncc(-c3cocn3)s2)c2[nH]cc(C#N)c12 [Compound 71] showed an EC50 of 532 nM.
O=S(=O)(Nc1cc(F)cc2c(Cl)c[nH]c12)c1nc(C(F)(F)F)cs1 [Compound 149] showed an EC50 of 897 nM.
Cc1ccc(NS(=O)(=O)c2ncc(-c3cn[nH]c3)s2)c2[nH]cc(C#N)c12 [Compound 70] was tested, and the EC50 was 338 nM.
Cc1ccc(NS(=O)(=O)c2ncc(P(C)(C)=O)s2)c2[nH]cc(C#N)c12 [Compound 111, N-(3-cyano-4-methyl-1H-indol-7-yl)-5-(dimethylphosphoryl)thiazole-2-sulfonamide] gave an EC50 of 1630 nM.
Cc1ccc(NS(=O)(=O)c2ncc(C(=O)N3CCOCC3)s2)c2[nH]cc(C#N)c12 [Compound 112] gave an EC50 of 1360 nM.
Work on N#Cc1c[nH]c2c(NS(=O)(=O)c3cnsn3)cccc12 [Compound 254] yielded an EC50 of 3920 nM.
Cc1ccc(NS(=O)(=O)c2ncc(-c3cccnc3)s2)c2[nH]cc(C#N)c12 [Compound 32] was tested, and the EC50 was 136 nM.
Compound Cc1ccc(NS(=O)(=O)c2ncc(C(=O)N3CCN(C)CC3)s2)c2[nH]cc(C#N)c12 [Compound 131] has an EC50 of 3800 nM.
Cc1ccc(NS(=O)(=O)c2nc(C(=O)N3CCC(O)C3)cs2)c2[nH]cc(C#N)c12 (stereo not drawn) [Compound 76] was tested, and the EC50 was 3320 nM.
Cc1ccc(NS(=O)(=O)c2cscn2)c2[nH]cc(C#N)c12 [Compound 63] showed an EC50 of 1170 nM.
Cc1ccc(NS(=O)(=O)c2ncc(-c3ccncc3)s2)c2[nH]cc(C#N)c12 [Compound 36] showed an EC50 of 354 nM.
For Cc1ccc(NS(=O)(=O)c2cncs2)c2[nH]cc(C(F)(F)F)c12 [Compound 198], the EC50 was 47 nM.
Compound O=S(=O)(Nc1cccc2c(Cl)c[nH]c12)c1cncs1 [Compound 203] has an EC50 of 583 nM.
Compound Cc1nocc1S(=O)(=O)Nc1ccc(C)c2c(C#N)c[nH]c12 [Compound 86] has an EC50 of 2070 nM.
Cc1ccc(NS(=O)(=O)c2cnc(Cl)s2)c2[nH]cc(C#N)c12 [Compound 7] showed an EC50 of 106 nM.
Cc1ccc(NS(=O)(=O)c2nc(C(=O)N3CCOCC3)cs2)c2[nH]cc(C#N)c12 [Compound 61] was tested, and the EC50 was 1790 nM.
Cc1noc(C)c1S(=O)(=O)Nc1ccc(C)c2c(C#N)c[nH]c12 [Compound 43] gave an EC50 greater than 30000 nM.
Compound CCc1nc(S(=O)(=O)Nc2ccc(F)c3c(Cl)c[nH]c23)c[nH]1 [Compound 146] has an EC50 of 505 nM.
With Cc1ccc(NS(=O)(=O)c2cc(C(C)(C)C)no2)c2[nH]cc(C#N)c12 [Compound 94] the EC50 was 45.2 nM.
With Cc1ccc(NS(=O)(=O)c2nc(Br)cs2)c2[nH]cc(C#N)c12 [Compound 13] the EC50 was 298 nM.
With Cc1ccc(NS(=O)(=O)c2ncc(C(=O)N3CCCC3)s2)c2[nH]cc(C#N)c12 [Compound 130] the EC50 was 1130 nM.
Cc1ccc(NS(=O)(=O)c2ncc(-c3ccncn3)s2)c2[nH]cc(C#N)c12 [Compound 45] was tested, and the EC50 was 394 nM.
Cc1ccc(NS(=O)(=O)c2ncc(-c3cc[nH]n3)s2)c2[nH]cc(C#N)c12 [Compound 69] gave an EC50 of 421 nM.
For Cc1ccc(NS(=O)(=O)c2nc(C(F)(F)F)cs2)c2[nH]cc(C#N)c12 [Compound 12, N-(3-cyano-4-methyl-1H-indol-7-yl)-4-(trifluoromethyl)-1,3-thiazole-2-sulfonamide], the EC50 was 384 nM.
In the case of N#Cc1c[nH]c2c(NS(=O)(=O)c3nc(C(F)(F)F)cs3)ccc(F)c12 [Compound 148], the EC50 is reported as 1310 nM.
O=S(=O)(Nc1cccc2cn[nH]c12)c1nccs1 [Compound 102] gave an EC50 greater than 30000 nM.
In the case of Cc1ccc(NS(=O)(=O)c2onc(C3CC3)c2Cl)c2[nH]cc(C#N)c12 [Compound 83], the EC50 is reported as 105 nM.
Compound N#Cc1c[nH]c2c(NS(=O)(=O)c3nc(Cl)cs3)ccc(F)c12 [Compound 163] has an EC50 of 893 nM.
In the case of N#Cc1c[nH]c2c(NS(=O)(=O)c3nc(Br)cs3)cccc12 [Compound 65], the EC50 is reported as 1080 nM.
Work on CCc1nc(S(=O)(=O)Nc2ccc(C)c3c(C#N)c[nH]c23)cn1CC(=O)O [Compound 140] yielded an EC50 of 6620 nM.
N#Cc1c[nH]c2c(NS(=O)(=O)c3cncs3)cccc12 [Compound 50, N-(3-cyano-1H-indol-7-yl)thiazole-5-sulfonamide] showed an EC50 of 966 nM.
N#Cc1c[nH]c2c(NS(=O)(=O)c3cnc(Cl)s3)cccc12 [Compound 136] was tested, and the EC50 was 511 nM.
In the case of COc1ncc(S(=O)(=O)Nc2ccc(C)c3c(C#N)c[nH]c23)s1 [Compound 84], the EC50 is reported as 175 nM.
Work on Cc1ncc(S(=O)(=O)Nc2cccc3c(C#N)c[nH]c23)o1 [Compound 108] yielded an EC50 of 1970 nM.
CC(C)(C)c1ncc(S(=O)(=O)Nc2cccc3c(C#N)c[nH]c23)o1 [Compound 110] was tested, and the EC50 was 729 nM.
For Cc1scnc1S(=O)(=O)Nc1ccc(C)c2c(C#N)c[nH]c12 [Compound 93], the EC50 was 1520 nM.
Compound N#Cc1c[nH]c2c(NS(=O)(=O)c3cnc(C(F)F)s3)cccc12 [Compound 120] has an EC50 of 359 nM.
For COc1ncc(S(=O)(=O)Nc2cccc3c(C#N)c[nH]c23)s1 [Compound 90], the EC50 was 389 nM.
Cc1ccc(NS(=O)(=O)c2cn(CC(C)C)cn2)c2[nH]cc(C#N)c12 [Compound 161] showed an EC50 of 978 nM.
Cc1ccc(NS(=O)(=O)c2ncc(C(=O)N3CCCCC3)s2)c2[nH]cc(C#N)c12 [Compound 144] was tested, and the EC50 was 1560 nM.
Cc1ccc(NS(=O)(=O)c2ncc(-c3cncnc3)s2)c2[nH]cc(C#N)c12 [Compound 67] showed an EC50 of 520 nM.
Work on Cc1sc(S(=O)(=O)Nc2cccc3c(C#N)c[nH]c23)nc1Br [Compound 55] yielded an EC50 of 302 nM.
N#Cc1c[nH]c2c(NS(=O)(=O)c3nccs3)cc(F)cc12 [Compound 132] gave an EC50 of 6650 nM.
For Cc1ncc(S(=O)(=O)Nc2cccc3c(Cl)c[nH]c23)s1 [Compound 200], the EC50 was 207 nM.
Cc1ccc(NS(=O)(=O)c2cnc(C(F)(F)F)s2)c2[nH]cc(C#N)c12 [Compound 24] was tested, and the EC50 was 269 nM.
CCc1ncc(S(=O)(=O)Nc2ccc(C)c3c(C#N)c[nH]c23)s1 [Compound 85] gave an EC50 of 95.9 nM.
Cc1ccc(NS(=O)(=O)c2nc(C(=O)N(C)C)cs2)c2[nH]cc(C#N)c12 [Compound 59] was tested, and the EC50 was 802 nM.
N#Cc1c[nH]c2c(NS(=O)(=O)c3onc(C4CC4)c3Cl)cccc12 [Compound 89] gave an EC50 of 174 nM.
In the case of CCc1ncc(S(=O)(=O)Nc2cccc3c(C#N)c[nH]c23)s1 [Compound 91], the EC50 is reported as 76.6 nM.
O=S(=O)(Nc1cccc2c(Cl)c[nH]c12)c1nccs1 [Compound 133] gave an EC50 of 2670 nM.
N#Cc1c[nH]c2c(NS(=O)(=O)c3nccs3)ccc(F)c12 [Compound 114] showed an EC50 of 3260 nM.
Work on Cc1ccc(NS(=O)(=O)c2csc(C(F)F)n2)c2[nH]cc(C#N)c12 [Compound 95] yielded an EC50 of 104 nM.
O=S(=O)(Nc1cccc2c(C(F)(F)F)c[nH]c12)c1nccs1 [Compound 185] showed an EC50 of 1010 nM.
In the case of O=S(=O)(Nc1ccc(F)c2c(Cl)c[nH]c12)c1cncs1 [Compound 187], the EC50 is reported as 228 nM.
N#Cc1c[nH]c2c(NS(=O)(=O)c3ncc(Cl)s3)cccc12 [Compound 116] gave an EC50 of 2130 nM.
Cc1nc(S(=O)(=O)Nc2cccc3c(C#N)c[nH]c23)sc1C [Compound 160] was tested, and the EC50 was 674 nM.
In the case of Cc1ccc(NS(=O)(=O)c2ncc(C(=O)N(C)C)s2)c2[nH]cc(C#N)c12 [Compound 127], the EC50 is reported as 959 nM.
CCc1nc(S(=O)(=O)Nc2cccc3c(C#N)c[nH]c23)c[nH]1 [Compound 38] was tested, and the EC50 was 4190 nM.
With Cc1ccc(NS(=O)(=O)c2csc(C(F)(F)F)n2)c2[nH]cc(C#N)c12 [Compound 47] the EC50 was 97 nM.
Work on CNC(=O)c1csc(S(=O)(=O)Nc2ccc(C)c3c(C#N)c[nH]c23)n1 [Compound 58] yielded an EC50 of 1080 nM.
N#Cc1c[nH]c2c(NS(=O)(=O)c3cncs3)ccc(F)c12 [Compound 199] gave an EC50 of 964 nM.
Compound O=S(=O)(Nc1cccc2c(Cl)c[nH]c12)c1cnc(C(F)F)s1 [Compound 204] has an EC50 of 130 nM.
In the case of Cc1ccc(NS(=O)(=O)c2nc(C(=O)N3CCCC3)cs2)c2[nH]cc(C#N)c12 [Compound 60], the EC50 is reported as 1360 nM.
For Cc1sc(S(=O)(=O)Nc2ccc(C)c3c(C#N)c[nH]c23)nc1Br [Compound 11], the EC50 was 108 nM.
Cc1ccc(NS(=O)(=O)c2ncc(Cl)s2)c2[nH]cc(C#N)c12 [Compound 3] showed an EC50 of 429 nM.
Compound CCc1nc(S(=O)(=O)Nc2cc(F)cc3c(C#N)c[nH]c23)c[nH]1 [Compound 157] has an EC50 of 1840 nM.
N#Cc1c[nH]c2c(NS(=O)(=O)c3nccs3)cccc12 [Compound 27] showed an EC50 of 2800 nM.
COCCNC(=O)c1cnc(S(=O)(=O)Nc2ccc(C)c3c(C#N)c[nH]c23)s1 [Compound 142] showed an EC50 of 1960 nM.
For O=S(=O)(Nc1ccc(F)c2c(Cl)c[nH]c12)c1nc(C(F)(F)F)cs1 [Compound 159, N-(3-chloro-4-fluoro-1H-indol-7-yl)-4-(trifluoromethyl)-1,3-thiazole-2-sulfonamide], the EC50 was 450 nM.
N#Cc1c[nH]c2c(NS(=O)(=O)c3cnsc3)cccc12 [Compound 215] gave an EC50 of 420 nM.
